# Experimental data taken from patent US20150307846A1, “GROWTH FACTOR COCKTAIL TO ENHANCE OSTEOGENIC DIFFERENTIATION OF MESENCHYMAL CELLS” (University of Pennsylvania, priority 2012, published 2015).
# Experiments:
# Assay type in all cases: cell-based
# [1] = tested on: human periosteum derived cells (hPDCs); assay: Gene expression of bone markers in hPDCs in 2D culture (Taqman PCR); conditions: for iBSP mRNA levels: at the used concentrations (Ca 6 mM, Pi 4 mM)
# Method: Same experimental design as in A. C) Identification of factors involved in osteoblast maturation. hPDCs were treated with OM and TGFβ1 for 6 days, followed by stimulation with GM (negative control), GM containing six factors or GM supplement with six minus one factor for 4 days. The factors are ascorbic acid (Asc. Ac., 57 μM), TNFα (50 ng/ml), IL6 (10 ng/ml), EGF (20 ng/ml), Ca (6 mM) and Pi (4 mM). To evaluate osteoblast maturation, gene expression of RUNX2, OSX, DLX5, iBSP, OC and RANKL is measured with Taqman PCR. […] D) Gene expression of osteoblast markers in hPDCs treated with OM and TGFβ1 for one week followed by GM supplemented with a growth factor mix (GF) containing ascorbic acid (57 μM), EGF (20 ng/ml), IL6 (10 ng/ml), Ca (6 mM), and Pi (4 mM) (“GF+C6P4”) or the same mix with reduced Ca (3 mM) and Pi (2 mM) ions (“GF+C3P2”). Gene expression is expressed as fold increase as compared to the GM condition. (n=3, error bars: standard deviations, *p≦00.05, Mann-Whitney U test). E) Gene expression of osteoblast markers in hPDCs treated with OM/TGFβ1 for 10 days, or with GM supplemented with ascorbic acid, EGF, IL6, C3P2 for 10 days (“EGF/IL6/C3P2”), or sequential stimulation with OM/TGFβ1 for 6 days followed by GM supplemented with ascorbic acid, EGF, IL6, C3P2 (“EGF/IL6/C3P2”) for 4 days. Gene expression is expressed as fold increase as compared to hPDCs cultured in OM/TGFβ1 (n=3, error bars: standard deviations, *p≦00.05, Mann-Whitney U test).
# (§1) Cell culture. Periosteum was harvested from four patients (male/female/age) and periosteal cells were enzymatically released from the matrix. Tissue culture plastic adherent cells were expanded in DMEM medium supplemented with 10% fetal bovine serum as described previously (6). For in vitro osteogenic differentiation assays, passage 6 to passage 9 hPDCs (pool of four different donors) were seeded at 3000 cells/cm^2 in either 96-well plates to assess proliferation and alkaline phosphatase activity or in the middle eight wells of a 24-well plate for quantifying gene expression.
# Medium was changed every other day. Supplemental factors were TNFα, IL6 (R&D Systems, USA), TGFβ1 (Stem Cell Research, USA), Ascorbic Acid (Sigma,USA), Ca and Pi (SigmaUSA). Calcium and phosphate ion working solutions were prepared as described in (7).
# Quantitative PCR. Complementary DNA (cDNA) was obtained by reverse transcription of […] of total RNA with Oligo (dT)20 as primer (Superscript Ill; Invitrogen, Merelbeke, Belgium). Sybr Green PCR was performed in 10 pl reaction in a Rotor-Gene-Q (Qiagen) with following protocol: 95° C. for 3 seconds, 60° C. for 20 seconds. Primer sequences for specific Sybr green PCR was performed with human specific primers (Table 5). Taqman PCR primer/probe combinations (Applied Biosystems) were used in the in vitro osteogenesis assays.
# Statistical Analysis. Experiments were carried out in triplicate. The error bars represent the standard error of the mean when cells from multiple donors are used. Standard deviations are shown when experiments are performed with a hPDC cell pool (n=3). Statistical comparison between experimental conditions was performed with a Mann-Whitney U test. A p-value ≦0.05 was considered as being statistically significant.
# [2] = tested on: human periosteum derived cells (hPDCs); assay: Proliferation of hPDCs in 2D culture (population doublings); conditions: 8 days, eight factors minus one
# Method: (§2) FIG. 8: A) Identification of factors that drive proliferation of hPDCs. A cell pool of hPDCs was either treated with growth medium (GM, negative control), medium containing eight factors (all factors) or medium containing eight minus one factor for 8 days. The factors are osteogenic medium (OM), calcium ions (Ca, 6 mM), phosphate ions (Pi, 4 mM), TNFα (50 ng/ml), IL6 (10 ng/ml), Wnt3A (50 ng/ml), EGF (20 ng/ml), and TGFβ1 (10 ng/ml). Proliferation is expressed as population doublings and was measured after 8 days after stimulation (n=3, error bars: standard deviation). The horizontal line is a reference line set on the proliferation in the “all factor” condition. B) Identification of factors that drive alkaline phosphatase activity in hPDCs. The percentage alkaline positive cells is used as a metric for early osteoblast differentiation.
# as §1, with “Tissue culture plastic adherent cells were expanded in DMEM medium supplemented with 10% fetal bovine serum as described previously (6).” left out, “expression. […]” for “expression.”
# [3] = tested on: human periosteum derived cells (hPDCs); assay: Alkaline phosphatase activity / ALP staining in hPDCs
# Method: as §2
# FIG. 9: Gene expression of early (A) and late (B) bone markers in hPDCs treated with GM, OM or GM/OM supplemented with a growth factor mix (GF) containing TNFα, EGF, TGFβ1 and IL6. […]
# Cell culture. […] For in vitro osteogenic differentiation assays, passage 6 to passage 9 hPDCs (pool of four different donors) were seeded at 3000 cells/cm^2 in either 96-well plates to assess proliferation and alkaline phosphatase activity or in the middle eight wells of a 24-well plate for quantifying gene expression. […]
# [4] = tested on: human periosteum derived cells (hPDCs); assay: ALP/Alizarin Red staining of calcium deposits (mineralization) on hPDCs; conditions: hPDCs after OM and TGFβ1 one week, then 4 days
# Source text: FIG. 9: Gene expression of early (A) and late (B) bone markers in hPDCs treated with GM, OM or GM/OM supplemented with a growth factor mix (GF) containing TNFα, EGF, TGFβ1 and IL6. C) ALP staining of hPDCs that were stimulated with OM and TGFβ1 for one week followed by GM with one factor in the absence or presence of ascorbic acid for 2 days. D) ALP/Alizarin Red staining to stain calcium deposits on hPDCs pre-treated with OM and TGFβ1 for one week followed by GM with six minus one factors for four days in the absence or presence of ascorbic acid.
# To overcome the inhibitory effect of OM on later stages of osteoblastogenesis, we considered to explore a two stage protocol wherein hPDCs were treated with OM and TGFβ1 to stimulate proliferation and ALP activity. After six days, medium was changed to growth medium supplemented with six factors (ascorbic acid, TNFα, IL6, EGF, Ca, Pi) minus one factor for 4 days. At this stage, ascorbic acid was included as a factor, because it promoted ALP activity (FIG. 9C) and mineralization (FIG. 9D) in vitro. […] Gene expression levels of RUNX2 were decreased when ascorbic acid was omitted from the mix. […] Furthermore, EGF, calcium and phosphate were required for DLX5 transcription, but at the used concentrations, calcium and phosphate decreased iBSP mRNA levels (FIG. 8C).
# [5] = two stage protocol, six factors minus one, 4 days
Compound,"RANKL expression in medium devoid of the factor [1, 5]",iBSP mRNA levels [1],"role in DLX5 transcription [1, 5]",also measured
"IL6: cytokine ligand, 10 ng/ml",lower levels,–,–,–
"TGFβ1: growth factor ligand, 10 ng/ml",–,–,–,"effect on proliferation (leave-one-out) [2]: strong inducers; effect on ALP activity (leave-one-out) ([3]; hPDCs, 8 days, eight factors minus one): strong inducers"
[Ca] [calcium],–,decreased,required,–
phosphate,–,decreased,required,–
TNFα,lower levels,–,–,"effect on osteogenic differentiation [1, 5]: strong inhibitor; expression levels of OSX, iBSP and OC when the factor was removed from the cocktail [1, 5]: enhanced"
"O=C1O[C@H]([C@@H](O)CO)C(O)=C1O [ascorbic acid, reference compound]",lower levels,–,–,"mineralization [4]: promoted; RUNX2 gene expression when the factor was omitted from the mix [1, 5]: decreased; ALP activity (staining) ([3]; hPDCs after OM and TGFβ1 one week, then GM with factor 2 days): promoted"
